Assay results taken from ChEMBL document CHEMBL5715954, “Silencing c-Myc translation as a therapeutic strategy through targeting PI3Kδ and CK1ε in hematological malignancies” (Blood, 2017).

How the values were obtained:
Parameters in all cases: scale not given: the % may be the effect or the level left
[1] = target: Ribosomal protein S6 kinase alpha-1 (Homo sapiens) (UniProt Q15418); test: Inhibition of human RSK1 assessed as enzyme activity at 1 uM using KKLNRTLSVA as substrate preincubated for 20 mins followed by [gamma-33P]-ATP addition and measured after 120 mins by radiometric Hot-SpotSM Kinase assay relative to control
Chain of Ribosomal protein S6 kinase alpha-1 (Homo sapiens) (Q15418 whole entry): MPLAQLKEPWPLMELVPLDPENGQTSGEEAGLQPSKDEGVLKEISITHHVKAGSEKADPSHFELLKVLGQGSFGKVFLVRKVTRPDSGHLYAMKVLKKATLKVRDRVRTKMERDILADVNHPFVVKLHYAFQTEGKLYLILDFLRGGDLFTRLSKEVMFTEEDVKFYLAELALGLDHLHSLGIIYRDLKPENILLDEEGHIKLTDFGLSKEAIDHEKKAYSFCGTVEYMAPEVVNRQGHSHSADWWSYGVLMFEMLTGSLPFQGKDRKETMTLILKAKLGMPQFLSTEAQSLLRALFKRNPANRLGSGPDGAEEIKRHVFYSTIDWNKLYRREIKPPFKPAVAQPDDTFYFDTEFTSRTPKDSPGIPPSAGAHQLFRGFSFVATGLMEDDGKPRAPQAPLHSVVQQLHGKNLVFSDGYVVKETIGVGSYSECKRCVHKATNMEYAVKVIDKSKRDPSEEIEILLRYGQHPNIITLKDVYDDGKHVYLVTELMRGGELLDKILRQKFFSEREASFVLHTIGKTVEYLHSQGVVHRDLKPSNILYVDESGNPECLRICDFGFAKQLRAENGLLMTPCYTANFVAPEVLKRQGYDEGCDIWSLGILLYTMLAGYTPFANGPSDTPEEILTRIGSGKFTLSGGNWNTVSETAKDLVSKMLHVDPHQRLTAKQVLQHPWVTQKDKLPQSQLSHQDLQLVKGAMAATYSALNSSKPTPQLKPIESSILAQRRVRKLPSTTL

[2] = target: Vascular endothelial growth factor receptor 3 (Homo sapiens) (UniProt P35916); test: Inhibition of human FLT4 assessed as enzyme activity at 1 uM using poly[Glu:Tyr] (4:1) as substrate preincubated for 20 mins followed by [gamma-33P]-ATP addition and measured after 120 mins by radiometric Hot-SpotSM Kinase assay relative to control
Chain of Vascular endothelial growth factor receptor 3 (Homo sapiens) (P35916 whole entry): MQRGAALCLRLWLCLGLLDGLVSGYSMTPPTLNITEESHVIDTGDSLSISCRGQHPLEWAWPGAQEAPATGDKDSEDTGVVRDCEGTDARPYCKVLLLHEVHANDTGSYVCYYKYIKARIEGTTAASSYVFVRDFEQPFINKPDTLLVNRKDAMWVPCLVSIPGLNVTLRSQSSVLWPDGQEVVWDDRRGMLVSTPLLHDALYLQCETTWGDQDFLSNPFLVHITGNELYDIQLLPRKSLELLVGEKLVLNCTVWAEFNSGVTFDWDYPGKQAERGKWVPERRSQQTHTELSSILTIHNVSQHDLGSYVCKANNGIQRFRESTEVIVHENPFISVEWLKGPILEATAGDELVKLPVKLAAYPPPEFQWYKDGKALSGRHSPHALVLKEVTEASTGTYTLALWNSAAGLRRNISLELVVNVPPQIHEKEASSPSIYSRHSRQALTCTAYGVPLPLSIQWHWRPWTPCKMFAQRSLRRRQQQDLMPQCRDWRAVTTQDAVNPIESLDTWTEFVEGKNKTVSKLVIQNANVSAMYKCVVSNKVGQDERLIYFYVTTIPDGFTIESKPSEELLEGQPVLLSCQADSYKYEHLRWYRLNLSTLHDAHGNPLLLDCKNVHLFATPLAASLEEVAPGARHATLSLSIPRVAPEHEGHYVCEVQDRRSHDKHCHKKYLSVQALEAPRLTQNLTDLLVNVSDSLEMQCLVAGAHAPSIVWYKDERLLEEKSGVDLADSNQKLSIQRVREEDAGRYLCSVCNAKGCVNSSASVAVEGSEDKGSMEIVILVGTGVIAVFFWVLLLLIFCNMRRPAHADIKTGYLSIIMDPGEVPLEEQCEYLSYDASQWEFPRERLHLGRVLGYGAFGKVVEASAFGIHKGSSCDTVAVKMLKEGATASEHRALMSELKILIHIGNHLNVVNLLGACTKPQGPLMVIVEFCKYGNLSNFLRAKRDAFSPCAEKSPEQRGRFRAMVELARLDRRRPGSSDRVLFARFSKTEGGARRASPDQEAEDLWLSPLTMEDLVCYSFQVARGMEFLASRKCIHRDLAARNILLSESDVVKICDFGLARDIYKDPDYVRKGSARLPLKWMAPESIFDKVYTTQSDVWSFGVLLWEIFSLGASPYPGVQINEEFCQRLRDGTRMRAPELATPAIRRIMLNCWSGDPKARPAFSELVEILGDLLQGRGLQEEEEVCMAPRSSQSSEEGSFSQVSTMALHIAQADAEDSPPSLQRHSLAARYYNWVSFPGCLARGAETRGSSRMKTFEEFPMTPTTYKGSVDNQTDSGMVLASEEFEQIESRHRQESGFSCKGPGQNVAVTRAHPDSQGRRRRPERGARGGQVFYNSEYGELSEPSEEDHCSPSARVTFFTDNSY

[3] = target: T1, Serine/threonine-protein kinase MAK (Homo sapiens) (UniProt P20794); test: Inhibition of human MAK assessed as enzyme activity at 1 uM using myelin basic protein as substrate preincubated for 20 mins followed by [gamma-33P]-ATP addition and measured after 120 mins by radiometric Hot-SpotSM Kinase assay relative to control
T1 sequence (whole entry): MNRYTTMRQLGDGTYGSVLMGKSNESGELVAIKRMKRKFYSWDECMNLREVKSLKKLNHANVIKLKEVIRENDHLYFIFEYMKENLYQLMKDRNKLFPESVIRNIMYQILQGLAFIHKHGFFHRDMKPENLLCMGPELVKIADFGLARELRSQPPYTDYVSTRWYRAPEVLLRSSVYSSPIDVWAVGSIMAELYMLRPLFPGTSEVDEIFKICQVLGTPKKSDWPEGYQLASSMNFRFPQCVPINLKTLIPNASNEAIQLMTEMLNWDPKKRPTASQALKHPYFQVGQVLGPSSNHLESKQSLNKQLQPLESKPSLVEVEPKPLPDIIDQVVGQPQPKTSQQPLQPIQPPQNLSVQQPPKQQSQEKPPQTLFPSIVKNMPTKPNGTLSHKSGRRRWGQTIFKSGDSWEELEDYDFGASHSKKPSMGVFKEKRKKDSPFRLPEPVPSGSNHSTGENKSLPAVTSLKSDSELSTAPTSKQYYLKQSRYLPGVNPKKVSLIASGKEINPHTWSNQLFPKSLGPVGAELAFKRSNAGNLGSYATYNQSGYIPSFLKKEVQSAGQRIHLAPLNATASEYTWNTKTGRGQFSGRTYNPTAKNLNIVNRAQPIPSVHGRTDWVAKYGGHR

[4] = target: Ephrin type-A receptor 4 (Homo sapiens) (UniProt P54764); test: Inhibition of human EPHA4 assessed as enzyme activity at 1 uM using poly[Glu:Tyr] (4:1) as substrate preincubated for 20 mins followed by [gamma-33P]-ATP addition and measured after 120 mins by radiometric Hot-SpotSM Kinase assay relative to control
Chain of Ephrin type-A receptor 4 (Homo sapiens) (P54764 whole entry): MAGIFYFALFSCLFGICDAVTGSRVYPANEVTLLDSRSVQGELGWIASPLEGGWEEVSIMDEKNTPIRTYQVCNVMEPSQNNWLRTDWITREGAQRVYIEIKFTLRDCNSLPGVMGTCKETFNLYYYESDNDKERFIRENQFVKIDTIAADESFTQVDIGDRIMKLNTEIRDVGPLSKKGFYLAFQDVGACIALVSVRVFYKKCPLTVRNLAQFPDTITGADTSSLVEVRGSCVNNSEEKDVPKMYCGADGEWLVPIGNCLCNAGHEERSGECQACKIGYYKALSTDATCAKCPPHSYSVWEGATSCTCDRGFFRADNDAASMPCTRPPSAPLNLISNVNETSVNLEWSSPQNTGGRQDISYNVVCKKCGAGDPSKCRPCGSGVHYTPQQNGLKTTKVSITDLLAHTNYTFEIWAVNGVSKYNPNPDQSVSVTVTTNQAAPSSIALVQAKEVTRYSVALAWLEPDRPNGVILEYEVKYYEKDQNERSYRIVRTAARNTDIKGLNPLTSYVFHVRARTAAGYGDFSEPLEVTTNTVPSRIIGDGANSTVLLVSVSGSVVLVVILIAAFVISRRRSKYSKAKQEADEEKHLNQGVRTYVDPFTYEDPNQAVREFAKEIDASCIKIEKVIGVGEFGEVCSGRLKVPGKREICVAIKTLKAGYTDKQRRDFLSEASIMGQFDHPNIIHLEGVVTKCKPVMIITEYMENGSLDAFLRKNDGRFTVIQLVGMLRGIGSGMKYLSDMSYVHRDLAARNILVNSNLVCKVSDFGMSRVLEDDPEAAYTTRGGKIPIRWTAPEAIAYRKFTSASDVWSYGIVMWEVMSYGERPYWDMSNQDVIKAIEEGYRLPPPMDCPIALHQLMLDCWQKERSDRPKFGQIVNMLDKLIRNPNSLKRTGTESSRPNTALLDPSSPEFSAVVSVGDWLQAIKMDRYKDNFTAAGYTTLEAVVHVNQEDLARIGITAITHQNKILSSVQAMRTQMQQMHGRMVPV

[5] = target: T2, Mitogen-activated protein kinase kinase kinase kinase 3 (Homo sapiens) (UniProt Q8IVH8); test: Inhibition of human GLK/MAP4K3 assessed as enzyme activity at 1 uM using myelin basic protein as substrate preincubated for 20 mins followed by [gamma-33P]-ATP addition and measured after 120 mins by radiometric Hot-SpotSM Kinase assay relative to control
T2 sequence (whole entry): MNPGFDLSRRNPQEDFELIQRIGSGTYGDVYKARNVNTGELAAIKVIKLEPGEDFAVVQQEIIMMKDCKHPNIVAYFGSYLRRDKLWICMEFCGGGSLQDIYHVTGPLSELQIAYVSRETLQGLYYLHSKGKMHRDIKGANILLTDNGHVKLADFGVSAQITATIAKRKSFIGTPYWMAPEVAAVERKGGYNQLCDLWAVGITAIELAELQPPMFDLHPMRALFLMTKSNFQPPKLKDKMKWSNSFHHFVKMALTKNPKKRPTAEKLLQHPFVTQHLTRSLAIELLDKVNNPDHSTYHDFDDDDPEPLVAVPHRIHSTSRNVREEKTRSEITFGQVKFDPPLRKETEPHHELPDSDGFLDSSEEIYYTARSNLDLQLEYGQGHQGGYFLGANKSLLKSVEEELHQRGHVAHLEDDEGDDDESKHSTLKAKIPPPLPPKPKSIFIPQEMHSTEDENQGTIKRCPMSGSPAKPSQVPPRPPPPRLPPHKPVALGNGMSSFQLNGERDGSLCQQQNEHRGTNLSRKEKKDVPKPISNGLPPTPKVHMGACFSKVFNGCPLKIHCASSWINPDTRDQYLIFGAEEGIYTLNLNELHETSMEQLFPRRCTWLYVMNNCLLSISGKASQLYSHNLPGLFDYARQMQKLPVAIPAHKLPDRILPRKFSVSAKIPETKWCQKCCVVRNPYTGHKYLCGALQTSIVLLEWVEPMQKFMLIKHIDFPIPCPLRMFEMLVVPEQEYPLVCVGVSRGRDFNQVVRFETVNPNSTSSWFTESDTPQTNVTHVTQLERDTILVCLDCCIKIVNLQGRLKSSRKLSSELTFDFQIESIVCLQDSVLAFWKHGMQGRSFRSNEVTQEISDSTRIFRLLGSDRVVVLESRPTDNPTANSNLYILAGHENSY

[6] = target: T3, Serine/threonine-protein kinase Nek2 (Homo sapiens) (UniProt P51955); test: Inhibition of human NEK2 assessed as enzyme activity at 1 uM using myelin basic protein as substrate preincubated for 20 mins followed by [gamma-33P]-ATP addition and measured after 120 mins by radiometric Hot-SpotSM Kinase assay relative to control
T3 sequence (whole entry): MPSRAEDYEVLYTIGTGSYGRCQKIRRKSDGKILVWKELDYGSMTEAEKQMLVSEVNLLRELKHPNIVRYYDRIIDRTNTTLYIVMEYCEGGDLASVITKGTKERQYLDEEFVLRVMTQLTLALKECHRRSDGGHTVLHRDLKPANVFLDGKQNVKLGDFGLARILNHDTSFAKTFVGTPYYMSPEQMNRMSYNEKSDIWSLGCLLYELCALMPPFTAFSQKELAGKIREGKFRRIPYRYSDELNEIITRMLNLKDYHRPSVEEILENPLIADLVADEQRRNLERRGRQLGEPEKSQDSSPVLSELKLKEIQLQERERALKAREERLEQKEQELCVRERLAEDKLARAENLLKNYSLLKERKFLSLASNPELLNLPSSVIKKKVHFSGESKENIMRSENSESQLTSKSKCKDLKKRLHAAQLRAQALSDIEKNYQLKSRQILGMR

[7] = target: CDK7/Cyclin H/MNAT1 (Homo sapiens) (UniProt P51946+P50613+P51948); test: Inhibition of human CDK7/Cyclin H/MNAT1 assessed as enzyme activity at 1 uM using myelin basic protein as substrate preincubated for 20 mins followed by [gamma-33P]-ATP addition and measured after 120 mins by radiometric Hot-SpotSM Kinase assay relative to control; assay type: protein-complex assay

Compound: CC[C@H](Nc1ncnc2[nH]cnc12)c1nc2cccc(F)c2c(=O)n1-c1ccccc1
- Activity [1]: 101%
- Activity [2]: 98.8%
- Activity [3]: 92.5%
- Activity [4]: 93.8%
- Activity [5]: 95.2%
- Activity [6]: 98%
- Activity [7]: 98.1%

Compound: C[C@H](Nc1ncnc2nc[nH]c12)c1cc2cccc(Cl)c2c(=O)n1-c1ccccc1
- Activity [1]: 100%
- Activity [2]: 101%
- Activity [3]: 98.5%
- Activity [4]: 87.9%
- Activity [5]: 98.3%
- Activity [6]: 110%
- Activity [7]: 95.2%

Compound: CC(C)Oc1ccc(-c2nn([C@@H](C)c3oc4ccc(F)cc4c(=O)c3-c3cccc(F)c3)c3ncnc(N)c23)cc1F [UMBRALISIB]
- Activity [1]: 104%
- Activity [2]: 98.8%
- Activity [3]: 96.5%
- Activity [4]: 85.9%
- Activity [5]: 99.3%
- Activity [6]: 101%
- Activity [7]: 101%
